Reference: patent publication US10780101B2, “Amide derivatives of squalamine for the treatment of infections” (VIRBAC, priority 2016, dated 2020)
≈ marks a conversion by molar mass, not a printed value.

How the values were obtained:
E. coli Animal (1956) = experiment: MIC determination, E. coli animal (1956); format: cell-based; conditions: Escherichia coli; Gram-negative; Mueller-Hinton medium, 24 h at 37° C.
Protocol: (§1) A negative control (2 mL of sterile culture medium)
(§2) A positive control (1940 μL of culture medium+40 μL of DMSO+20 μL of the bacterial suspension) from a thawed biological strain (the biological strains are stored at −80° C. in glycerol).
(§3) The tubes were incubated at 37° C. for 24 hours at 100 rpm.
(§4) The microorganisms were handled under a type L2 laboratory fume cupboard and, before any handling, a UV cycle was programmed and only sterile material was used. […] The chemical compounds to be tested were prepared in a DMSO/methanol mixture (50/50) at a concentration of 5 mg/mL.
(§5) After 24 hours of incubation, a measurement of the optical density was taken using a spectrophotometer at 600 nm, collecting 100 μL of the bacterial suspension diluted in 900 μL of the sterile culture medium. This test required the use of a 96-well plate and the required volume of the microbial suspension to be seeded was calculated for an OD corresponding to a value equal to 0.01 in each well. In this plate, the first line corresponded to the negative control (195 μL of sterile culture medium in each well), the second line corresponded to the positive control (seeded culture medium supplemented with 2% of DMSO), and the third line was loaded twice with bacterial suspension; 8 μL of test product were placed in each well. Thereafter, a 0.5 cascade dilution was performed from this line.
(§6) The first column served as inhibition control. A sterile filter was then placed on the microplate, allowing the passage of gases but not of contaminants. The microplate was incubated at 37° C. under a humid atmosphere for 24 hours.
(§7) NB: The medium used is Mueller-Hinton (MH) medium for bacteria. All the tests were performed in duplicate.
(§8) After incubation, the filter was replaced with a transparent film, and an OD reading was then taken in an iEMS plate spectrophotometer at 620 nm. Calculation of the minimum inhibitory concentration (MIC) was performed.

CHO-K1 cells = experiment: WST1 cytotoxicity test on CHO-K1 cells; format: cell-based, Chinese hamster; conditions: Cricetulus griseus, CHO-K1, 24 h, read-out: IC50 (μg/mL) CHO
Protocol: Test WST1 was used to measure the cytotoxic activity of the products. This is a colorimetric test which makes it possible to measure the viability and the degree of cell proliferation. It is based on cleavage of the colorless tetrazolium salts WST-1 (4-[3-(4-iodophenyl)-2-(4-nitrophenyl)-2H-5-tetrazolio]-1,3-benzene disulfonate) with mitochondrial dehydrogenases to the yellow-colored formazan derivative, which may be quantified by spectrophotometry at 420-480 nm.
The WST1 test was performed on Chinese hamster ovary cells. The CHO-K1 cells (ATCC, USA) are kept in culture in McCoy's 5A medium supplemented with 10% fetal calf serum, 2 mM of L-glutamine and a mixture of penicillin-streptomycin (100 U/ml: 10 μg/ml). The culture is incubated at 37° C. under an atmosphere enriched in CO2 (5%), and subcultured every two days.
The cells are transferred into 96-well plates (25000 cells/mL) in whole McCoy's 5A medium, and maintained for 24 hours at 37° C. under a humid atmosphere enriched in CO2 (5%). Increasing concentrations of test products are added to the wells in double tests and 8 growth controls containing the cells in the medium alone are included in each series of tests. After 24 hours at 37° C. (5% CO2), the culture medium is removed, the cells are rinsed in phosphate buffer (PBS) and 50 μL of PBS containing 10% of reagent WST1 are added to each well. After 20 minutes of incubation at 37° C., the results are read by spectrophotometry at 450 nm.
The results are expressed in dose-response relationships, modeled by nonlinear regression analysis using the TableCurve software. The 50% inhibitory concentration (IC50) represents the concentration of product that is capable of reducing the cell viability by 50%.

S. aureus Animal (340) = experiment: MIC determination, S. aureus animal (340); format: cell-based; conditions: Staphylococcus aureus; Gram-positive; Mueller-Hinton medium, 24 h at 37° C.
Protocol: as §1, §2, §3, §4, §5, §6, §7, §8

[1] = system: S. aureus Human ATCC 25923; experiment: MIC determination, S. aureus human ATCC 25923; format: cell-based; conditions: Staphylococcus aureus, ATCC25923; Gram-positive; Mueller-Hinton medium, 24 h at 37° C.
Protocol: as §1, §2, §3, §4, §5, §6, §7, §8

[2] = system: S. intermedius Animal (1051997); experiment: MIC determination, S. intermedius animal (1051997); format: cell-based; conditions: Staphylococcus intermedius; Gram-positive; Mueller-Hinton medium, 24 h at 37° C.
Protocol: as §1, §2, §3, §4, §5, §6, §7, §8

E. coli Human ATCC 28922 = experiment: MIC determination, E. coli human ATCC 28922; format: cell-based; conditions: Escherichia coli, ATCC28922; Gram-negative; Mueller-Hinton medium, 24 h at 37° C.
Protocol: as §1, §2, §3, §4, §5, §6, §7, §8

[3] = system: E. faecalis Human ATCC 29212; experiment: MIC determination, E. faecalis human ATCC 29212; format: cell-based; conditions: Enterococcus faecalis, ATCC29212; Gram-positive; Mueller-Hinton medium, 24 h at 37° C.
Protocol: as §1, §2, §3, §4, §5, §6, §7, §8

[4] = system: P. aeruginosa Animal (1051575); experiment: MIC determination, P. aeruginosa animal (1051575); format: cell-based; conditions: Pseudomonas aeruginosa; Gram-negative; Mueller-Hinton medium, 24 h at 37° C.
Protocol: as §1, §2, §3, §4, §5, §6, §7, §8

P. aeruginosa (1051575) = experiment: Potentiation of doxycycline activity (combination MIC); format: cell-based, Pseudomonas aeruginosa; conditions: for MIC - P. aeruginosa (1051575): content of compound of formula (I) to restore the doxycycline activity (at 2 μg/mL): in presence of doxycycline 2 μg/mL, 24 hours at 37° C.
[5] = system: P. aeruginosa Human ATCC 27853; experiment: MIC determination, P. aeruginosa human ATCC 27853; format: cell-based; conditions: Pseudomonas aeruginosa, ATCC27853; Gram-negative; Mueller-Hinton medium, 24 h at 37° C.
Protocol: as §1, §2, §3, §4, §5, §6, §7, §8

Row | Compound | MIC (E. coli Animal (1956)) | IC50 (CHO-K1 cells) | MIC (S. aureus Animal (340)) | MIC [1] | MIC [2] | MIC (E. coli Human ATCC 28922) | MIC [3] | MIC [4] | synergism when administered with doxycycline (P. aeruginosa (1051575); doxycycline at 2 μg/mL) | MIC - P. aeruginosa (1051575): content of compound of formula (I) to restore the doxycycline activity (at 2 μg/mL) (P. aeruginosa (1051575)) | MIC [5]
1 | CC(C)NC(=O)CC[C@@H](C)[C@H]1CCC2C3CCC4C[C@@H](NCCCNCCCCNCCCN)CC[C@]4(C)C3CC[C@@]21C (stereo partly drawn) [Compound (36), 3β-spermino-N-isopropyllithocholamide] | 15 µg/mL (≈ 24.9 µM) | 36 µg/mL (≈ 59.8 µM) | 3.75 µg/mL (≈ 6.23 µM) | 3.75 µg/mL (≈ 6.23 µM) | 1.87 µg/mL (≈ 3.11 µM) | 7.5 µg/mL (≈ 12.5 µM) | 7.5 µg/mL (≈ 12.5 µM) | 30 µg/mL (≈ 49.8 µM) | noteworthy synergism | 0.5 µg/mL | 15 µg/mL (≈ 24.9 µM)
2 | CC(C)NC(=O)CC[C@@H](C)[C@H]1CCC2C3CCC4C[C@@H](NCCCNCCCCNCCCN)CC[C@]4(C)C3C[C@H](O)[C@@]21C (stereo partly drawn) [(30), 3β-spermino-N-isopropyldeoxycholamide] | 30 µg/mL (≈ 48.5 µM) | 30 µg/mL (≈ 48.5 µM) | 8 µg/mL (≈ 12.9 µM) | 8 µg/mL (≈ 12.9 µM) | 1 µg/mL (≈ 1.62 µM) | 15 µg/mL (≈ 24.3 µM) | 15 µg/mL (≈ 24.3 µM) | 4 µg/mL (≈ 6.47 µM) |  | 1 µg/mL | 4 µg/mL (≈ 6.47 µM)
3 | CNC(=O)CC[C@@H](C)[C@H]1CCC2C3C(CC[C@@]21C)[C@@]1(C)CC[C@H](NCCCNCCCNCCCN)CC1C[C@H]3O (stereo partly drawn) [(10), 3β-norspermino-N-methylchenodeoxycholamide] | 7 µg/mL (≈ 12.2 µM) | 35 µg/mL (≈ 60.8 µM) | 1 µg/mL (≈ 1.74 µM) | 7 µg/mL (≈ 12.2 µM) | 1 µg/mL (≈ 1.74 µM) | 14 µg/mL (≈ 24.3 µM) | 14 µg/mL (≈ 24.3 µM) | 5 µg/mL (≈ 8.68 µM) |  | 1 µg/mL | 28 µg/mL (≈ 48.6 µM)
4 | CC(C)NC(=O)CC[C@@H](C)[C@H]1CCC2C3C(C[C@H](O)[C@@]21C)[C@@]1(C)CC[C@H](NCCCN(C)CCCN)CC1C[C@H]3O (stereo partly drawn) [(26), 3β-(bis(3-aminopropyl)methylamine)-N-isopropylcholamide] | 56 µg/mL (≈ 97.1 µM) | 80 µg/mL (≈ 139 µM) | 28 µg/mL (≈ 48.5 µM) | 28 µg/mL (≈ 48.5 µM) | 14 µg/mL (≈ 24.3 µM) | 28 µg/mL (≈ 48.5 µM) | 56 µg/mL (≈ 97.1 µM) | 56 µg/mL (≈ 97.1 µM) |  | 4 µg/mL | 112 µg/mL (≈ 194 µM)
5 | CC(C)NC(=O)CC[C@@H](C)[C@H]1CCC2C3C(CC[C@@]21C)[C@@]1(C)CC[C@H](NCCCN(CCCN)CCCN)CC1C[C@@H]3O (stereo partly drawn) [(48), 3β-(tris(3-aminopropyl)amine)-N-isopropylursodeoxycholamide] | 120 µg/mL (≈ 199 µM) | 42 µg/mL (≈ 69.5 µM) | 15 µg/mL (≈ 24.8 µM) | 30 µg/mL (≈ 49.7 µM) | 8 µg/mL (≈ 13.2 µM) | > 120 µg/mL | 60 µg/mL (≈ 99.3 µM) | 120 µg/mL (≈ 199 µM) |  | 4 µg/mL | 120 µg/mL (≈ 199 µM)
6 | CC(C)NC(=O)CC[C@@H](C)[C@H]1CCC2C3C(C[C@H](O)[C@@]21C)[C@@]1(C)CC[C@H](NCCCN2CCN(CCCN)CC2)CC1C[C@H]3O (some centres unmarked) [(6)] | 64 µg/mL (≈ 101 µM) | 100 µg/mL (≈ 158 µM) | 32 µg/mL (≈ 50.6 µM) | 16 µg/mL (≈ 25.3 µM) | 16 µg/mL (≈ 25.3 µM) | 32 µg/mL (≈ 50.6 µM) | 32 µg/mL (≈ 50.6 µM) | 64 µg/mL (≈ 101 µM) |  | 8 µg/mL | 218 µg/mL (≈ 345 µM)
7 | CC(C)NC(=O)CC[C@@H](C)[C@H]1CCC2C3CCC4C[C@@H](NCCNCCNCCNCCNCCN)CC[C@]4(C)C3CC[C@@]21C (some centres unmarked) [(24)] | 64 µg/mL (≈ 101 µM) | 35 µg/mL (≈ 55.4 µM) | 8 µg/mL (≈ 12.7 µM) | 8 µg/mL (≈ 12.7 µM) | 4 µg/mL (≈ 6.33 µM) | 32 µg/mL (≈ 50.6 µM) | 16 µg/mL (≈ 25.3 µM) | 128 µg/mL (≈ 203 µM) |  | 8 µg/mL | 128 µg/mL (≈ 203 µM)
